# Measurements published in US20210246164A1, “PEPTIDIC PROTEIN KINASE C INHIBITORS AND USES THEREOF” (UNIVERSITE DE GENEVE, priority 2016, published 2021).
# Where a SMILES comes first, the peptide text is derived from it. Where no end group is shown, it is not given here. The star is where a group is joined. Myristoyl = CCCCCCCCCCCCCC(=O)*
# Tests used:
# in vitro = details: human, Caco-2 cells
# Method: (§12) Viability of Caco-2 cells (human intestinal epithelial cell line) was determined by a cell proliferation assay using WST-1 based colorimetric assay. […] WST-1 reagent (diluted 1:10 in cell culture medium) was added as described in the instruction manual (Roche Diagnostics GMBH, Mannheim, Germany). Following 1-3 h incubation at 37° C. with the peptides or controls, absorbance at 450 nm (reference at 690 nm) was measured by a BioTek Synergy Mx plate reader. Percentage of cell viability was calculated based on the absorbance measured relative to that of cells exposed to only culture medium (control group). Sodium dodecyl sulfate (SDS) at 2% was used as a positive control for cell toxicity.
# [1] = test system: primary human nasal epithelial cell monolayers; experiment: Permeabilization of fluorescein-conjugated dextran (FD) across nasal epithelial monolayers (cumulative release, Papp); assay type: cell-based
# Method: (§1) To assess the potential effects of peptides of the invention on the permeabilization of therapeutic molecules, fluorescein-conjugated dextrans (FD) were used to as a model for assessing paracellular drug transport (apical to basolateral) across the epithelial monolayer.
# (§2) To ensure that the integrity of the monolayer was maintained during the course of the experiment, trans-epithelial electrical resistance (TEER) was measured before and after these studies, as described below.
# (§3) Mucilair™ human primary nasal and bronchial epithelial cells (Epithelix sarl, Geneva, Switzerland) were used (Huang et. al., 2013, Toxicol. in Vitro 27: 1151-1156).
# (§4) Before each experiment, the culture medium was removed from each compartment and the monolayer was washed once with 200 μl of saline (0.9%) and once with warm Hanks' Balanced Salt Solution (HBSS) (37° C.). In the basolateral compartment, 600 μL of pre-warmed HBSS was placed and the cells were returned to the incubator at 37° C. for 30 minutes to equilibrate. After equilibration, the peptides of the invention were applied to the apical side of an epithelial monolayer 5 minutes prior to the addition of FD solution. Peptide 1 according to the invention (P1 of SEQ ID NO: 2) was tested in comparison with comparative peptides C1 (SEQ ID NO: 4) and C2 (SEQ ID NO: 5). FD having a molecular weight (MW) of 4 and 150 kDa were used.
# (§5) All peptides were used at a final concentration of 10 μM. The vehicle was used as a control (CTRL). The FD solution was added to the apical compartment to make a final volume of 200 μl. Samples of 100 μL were taken from the basal compartment of each well every 30 minutes over a period of 150 minutes, with each volume being replaced with equal amount of fresh warm buffer to maintain sink condition. The fluorescence of FD was measured in black 96-well plates using a fluorescence plate reader (BioTek Synergy Mx plate reader, BioTek Instruments GmbH, Lucerne, Switzerland), using excitation and emission wavelengths of 485 and 520 nm, respectively. Cumulative release (ng) corresponds to the actual amount of drug released cumulatively and corresponds to the amount in the suspension medium at any time plus the amount of the drug lost during each sampling.
# (§6) Trans-epithelial electrical resistance (TEER): After addition of 200 μl of culture medium to the apical compartment of the tissue cultures, resistance was measured across cultures with an EVOMX volt-ohm-meter (World Precision Instruments UK, Stevenage) in triplicate for each time point. The TEER values (Ω) were converted normalized by using the following formula: TEER (Ωcm^2)=(resistance value (Ω)−100 (Ω))×0.33 (cm^2), where 100Ω is the resistance of the membrane and 0.33 cm^2 is the total surface of the epithelium.
# (§7) To assess the role of the membrane penetrating group (myristoyl) in peptides of the invention in the enhancing of the permeability of macromolecules through epithelial cell layers, the permeabilizing capacity of peptide P1 of the invention was compared to a comparative peptide C3 (SEQ ID NO: 6) corresponding to the same peptide without the myristoyl group. The permeabilizing capacity of a peptide P2 (SEQ ID NO: 3) of the invention was also assessed. Uptake experiments and TEER were conducted as described in Example 2.
# (§8) To assess the duration of the permeabilization effect of the peptide of the invention, apparent permeability of peptides of various lengths was evaluated as follows. Apparent permeability refers to the amount of released FD at that time point when the sample is collected.
# (§9) The tested Peptides, uptake experiments and TEER were as described in Example 2.
# (§10) Apparent permeability of FD: The apparent permeability (Papp) of FD was calculated using equation 1: Papp=(dQ/dt)/A*C0 (1)
# [2] = test system: primary human bronchial epithelial cell monolayers; experiment: Permeabilization of fluorescein-conjugated dextran (FD) across bronchial epithelial monolayers (cumulative release, Papp); assay type: cell-based
# Method: as §1, §2, §3, §4, §5, §6, §7, §8, §9, §10
# [3] = test system: non-small cell lung cancer (NSCLC); details: compared to chemotherapies; cited from earlier work
# [4] = test system: TJ proteins occludin and ZO-1 in primary human bronchial epithelial cell monolayers; experiment: Immunofluorescence of TJ proteins occludin and ZO-1, bronchial cells (confocal microscopy); assay type: cell-based; details: 50 μM peptide, 2 hours
# Method: (§11) The effect of peptides of the invention on the tight junction structure of human primary nasal and bronchial epithelial cells were evaluated by confocal microscopy as follows. Mucilair™ human primary nasal and bronchial epithelial cells (Epithelix Sarl, Geneva, Switzerland) were incubated with 50 μM of peptide of the invention P1 or comparative peptides C1 and C2 for 2 hours and washed twice with phosphate buffered saline (PBS) (without Ca^2+/Mg^2+) at 37° C. Cells were fixed with methanol/acetone (50:50) for 5 minutes at […], air-dried, and washed with TBST (mixture of tris-buffered saline (TBS) and Polysorbate 20). Cell monolayers were blocked using a solution of 3% bovine serum albumin (BSA) in PBS for 60 minutes at room temperature and incubated with primary antibody against occludin (Cat: 331588, Invitrogen, Zug, Switzerland); dilution (1:200)) and ZO-1 (zonula occludens-1 protein) (Cat: 339194, Invitrogen, Zug, Switzerland); dilution (1:200)) in dilution buffer. Samples were mounted (Vectashield mounting media with DAPI (4′,6-diamidino-2-phenylindole); Vector Laboratories) and assessed within the next 24 hours by using a laser-scanning confocal microscope (CLSM; Plan-Apochromat 63/1.40 (oil) DIC objective, Zeiss Axiovert 100M-LSM 510; Carl Zeiss, Oberkochen, Germany). […]
# [5] = test system: OCA_EGFR19del cultures (HCC827 cells); experiment: Tumor size in OncoCilAir non-small cell lung cancer model; assay type: cell-based
# Excerpt: HCC827 cells (lung adenocarcinoma) mutated in the tyrosine kinase domain of the EGFR (epidermal growth factor receptor) were used (model OncoCilAir™, wherein Non-Small Cell Lung Cancer (NSCLC) cells were tagged with green fluorescent protein (GFP)).
# Tumour morphometry was resolved by fluorescence microscopy using a Zeiss Axiocam microscope platform. Growth curves were based on various images were acquired every 2 days and the area of the green fluorescent protein positive (GFP^+) tumour was measured using the Image-Pro Plus Software (MediaCybernetics, Rockville, Md., USA). For each time point, the ratio of the total area occupied by tumours to the size of the insert was calculated and expressed as percentage of day 0, at the start of the treatment (tumor occupancy). Identical analyses settings, i.e. fixed fluorescence intensity threshold and fixed size threshold ([…]) were applied to all processed images. Percentage of tumour growth inhibition was calculated using the formula: (1−[tumour occupancy in treatment group/tumour occupancy in control group]×100).
# Caco-2 cells = experiment: Cell viability, WST-1 based colorimetric assay; details: 24 hours
# Method: as §12
# [6] = test system: TJ proteins occludin and ZO-1 in primary human nasal epithelial cell monolayers; experiment: Immunofluorescence of TJ proteins occludin and ZO-1, nasal cells (confocal microscopy); assay type: cell-based; details: 50 μM peptide, 2 hours
# Method: as §11
# [7] = test system: Antigen-specific serum antibodies (IgG total and IgG1); experiment: Intranasal immunization with Ova, antigen-specific serum antibodies by ELISA; assay type: in vivo, mice; details: i.n. 5 μg Ova with 5 μg P1 vs Ova alone; after three immunizations
# Excerpt: The effect of peptides of the invention on the efficacy of mucosal vaccines has been investigated by administering a combination of P1 with a soluble protein antigen and induced immunization has been investigated.
# 6 week-old female C57-BL/6 mice were purchased from Charles River Laboratories (Harlan, France) and hosted under standard conditions following the corresponding guidelines of Animal Ethic Committee. Mice (n=5) were immunized by intranasal (i.n.) administration under anesthesia on days 0, 14, and 28 with the following immunogens: saline (PBS) as a negative control, ovalbumin (Ova) (in NaCl 0.9% solution) or Ova+P1 Ova/dose (5 μg) (mixture of solution of Ova in NaCl 0.9% and solution of P1 in NaCl 0.9%) as a mixture were administered to each animal group in 12 μL (6 μL per nostril). P1 was used at a concentration of 5 μg/dose. […]
# Antigen-specific serum antibodies (IgG total and IgG1) were measured by ELISA (enzyme-linked immunosorbent assay). […] Plates were washed 4 times, and HRP was quantified by adding 100 μl of TMB (3,3′,5,5′-Tetramethylbenzidine) substrate (Pierce Protein Research Products; Rockford, Ill.). Antibody titers were determined at the midpoint of the optical density-log dilution curves after subtraction of the naive background, and none-responding mice were given an arbitrary titer of 10.
# [8] = peptide 10 μM apical, 150 minutes, vs control
# [9] = P1 1 μM apical + gefitinib 1 μM apical
compound,measurement,setting,value
"CCCCCCCCCCCCCC(=O)N[C@@H](CO)C(=O)N[C@H](C(=O)N[C@@H](Cc1ccc(O)cc1)C(=O)N[C@@H](CCCNC(=N)N)C(=O)N[C@@H](CCCNC(=N)N)C(=O)NCC(=O)N[C@@H](C)C(=O)N[C@@H](CCCNC(=N)N)C(=O)N[C@@H](CCCNC(=N)N)C(=O)N[C@@H](Cc1c[nH]c2ccccc12)C(=O)N[C@@H](CCCNC(=N)N)C(=O)N[C@@H](CCCCN)C(=O)N[C@@H](CC(C)C)C(=O)O)[C@@H](C)CC [Peptide C1, reference compound] (Myristoyl-SIYRRGARRWRKL-OH; C-terminus assumed)","viability at 24 h, 50 µM",in vitro,55.2%
same,"viability at 24 h, 100 µM",in vitro,34%
same,reversibility of permeabilization of FD 4 kDa (decrease in Papp overtime),"[1]; peptide 10 μM, 150 minutes",reversible
same,reversibility of permeabilization of FD 4 kDa (decrease in Papp overtime),"[2]; peptide 10 μM, 150 minutes",reversible
"ARRWR (not fully specified (N-terminus)) [Peptide C3, same peptide as P1 without the myristoyl group, reference compound]",permeability of fluorescein conjugated dextran of 4 kDa (cumulative release),[1]; [8],did not show significant difference in permeabilization ability compared to the negative control
same,permeability of fluorescein conjugated dextran of 4 kDa (cumulative release),[2]; [8],did not show significant difference in permeabilization ability compared to the negative control
"N-acetyl-ARR [Peptide C2, reference compound]",permeability of fluorescein conjugated dextran of 4 kDa (cumulative release),[1]; [8],not differing from control
same,permeability of fluorescein conjugated dextran of 4 kDa (cumulative release),[2]; [8],not differing from control
"COc1cc2ncnc(Nc3ccc(F)c(Cl)c3)c2cc1OCCCN1CCOCC1 [gefitinib, N-(3-Chloro-4-fluorophenyl)-7-methoxy-6-(3-morpholinopropoxy) quinazolin-4-amine]",progression free survival (PFS),[3],7.7-12.9 months
"CCCCCCCCCCCCCC(=O)N[C@@H](C)C(=O)N[C@@H](CCCNC(=N)N)C(=O)N[C@@H](CCCNC(=N)N)C(=O)N[C@@H](Cc1c[nH]c2ccccc12)C(=O)N[C@@H](CCCNC(=N)N)C(=O)O [Peptide P1, Myr-ARRWR] (Myristoyl-ARRWR-OH)","viability at 24 h, 100 µM",in vitro,76.7%
same,redistribution of occludin and ZO-1,[4],causes desired TJ proteins redistribution
same,effect of combination on tumour size vs gefitinib alone,[5]; [9],significantly more efficacious than the gefitinib alone
same,time at which maximal therapeutic effect was obtained,[5]; [9],3 days
same,effect of combination on tumour progression vs gefitinib alone,[5]; P1 1 μM apical + gefitinib 1 μM basal,significantly potentiated the effects of the drug on tumour progression
same,effect of combination on tumour progression vs gefitinib alone,[5]; P1 1 μM apical + gefitinib 5 μM basal,significantly potentiated the effects of the drug on tumour progression
same,effect on tumor size,"[5]; P1 alone 1 μM apical, 6 expositions over 14 days, vs DMSO",had no effect on tumor size
same,permeability of FD of 150 kDa (cumulative release),[1]; [8],significantly increases the permeability
same,permeability of fluorescein conjugated dextran of 4 kDa (cumulative release),[1]; [8],increased the permeability of the fluorescein conjugated dextran of 4 kDa in a significant manner
same,Papp for FD of 150 kDa over time,"[1]; peptide 10 μM, 150 minutes",immediate increase in the first 30 minutes and steadily decreased therefrom
same,reversibility of permeabilization of FD 4 kDa (decrease in Papp overtime),"[1]; peptide 10 μM, 150 minutes",reversible
same,"reversibility of the permeabilization effect, FD of 150 kDa","[1]; peptide 10 μM, FIG. 6",Reversibility of the permeabilization effect was also observed
same,permeability of FD of 150 kDa (cumulative release),[2]; [8],significantly increases the permeability
same,permeability of fluorescein conjugated dextran of 4 kDa (cumulative release),[2]; [8],increased the permeability of the fluorescein conjugated dextran of 4 kDa in a significant manner
same,Papp for FD of 150 kDa over time,"[2]; peptide 10 μM, 150 minutes",immediate increase in the first 30 minutes and steadily decreased therefrom
same,reversibility of permeabilization of FD 4 kDa (decrease in Papp overtime),"[2]; peptide 10 μM, 150 minutes",reversible
same,"reversibility of the permeabilization effect, FD of 150 kDa","[2]; peptide 10 μM, FIG. 6",Reversibility of the permeabilization effect was also observed
same,toxicity on Caco-2 cells,Caco-2 cells; 50 μM,did not show any toxicity
same,concentration non-toxic to cells,Caco-2 cells,at least 50 μM
same,redistribution of occludin and ZO-1,[6],causes desired TJ proteins redistribution
same,Ova-specific serum IgG1 response,[7],significantly higher
same,Ova-specific serum IgG (total) response,[7],significantly higher
Myr-AKRWR (Myristoyl-AKRWR) [Peptide P2],permeability of fluorescein conjugated dextran of 4 kDa (cumulative release),[1]; [8],increased the permeability of the fluorescein conjugated dextran of 4 kDa in a significant manner
